Laboratory results published in US12655173B2, “Hybrid amide derivatives of amphotericin B” (priority 2020, dated 2026).
≈ marks a conversion by molar mass, not a printed value.

What was measured:
yeast = assay: MICavg / Average MIC against yeasts; assay type: cell-based; conditions: for MIC: 46 isolates, Table 3
moulds = assay: MICavg / Average MIC against moulds; assay type: cell-based; conditions: for MIC: 157 isolates, Table 2
[1] = UV-Vis sterol binding assay
Experimental: UV-Vis is Binding Assay (FIG. 1A): The protocol for the sterol binding assay (UV-Vis) was developed in our lab. Compounds were dissolved in DMSO at a final concentration of 1 mM. Sterol were first dissolved in CHCl3 (>200 mM) and then diluted to 1 mM concentration with DMSO To synthesize the complex 1 ul of compound solution was taken in a clean eppendorf tube (2 ml) and sterol solution (volume depends on the stoichiometry) was added to it and the volume was made up to 20 ul with DMSO. 0.98 ml of PBS buffer was added to the Eppendorf tube and mixed properly. The absorbance of the solution was measured after 30 mins of incubation.

[2] = Blood plasma stability, mouse; assay type: in vitro ADME; conditions: Mouse
A. fumigatus = assay: MIC against moulds; assay type: cell-based; conditions: 5 isolates; AmB (AmBisome)
A. flavus = assay: MIC against moulds; assay type: cell-based; conditions: 6 isolates; AmB (AmBisome)
A. niger = assay: MIC against moulds; assay type: cell-based; conditions: 6 isolates; AmB (AmBisome)
A. terreus = assay: MIC against moulds; assay type: cell-based; conditions: 6 isolates; AmB (AmBisome)
A. calldoustus = assay: MIC against moulds; assay type: cell-based; conditions: 6 isolates; AmB (AmBisome)
A. tubingensis = assay: MIC against moulds; assay type: cell-based; conditions: 6 isolates; AmB (AmBisome)
Mucor circinelloides = assay: MIC against moulds; assay type: cell-based; conditions: 6 isolates; AmB (AmBisome)
Mucor janssenii = assay: MIC against moulds; assay type: cell-based; conditions: 6 isolates; AmB (AmBisome)
Mucor velutinosus = assay: MIC against moulds; assay type: cell-based; conditions: 6 isolates; AmB (AmBisome)
Histoplasma capsulatum = assay: microbe, parasite or virus in culture; assay type: cell-based; conditions: 6 isolates; AmB (AmBisome)
Coccidioides immitis = assay: microbe, parasite or virus in culture; assay type: cell-based; conditions: 6 isolates; AmB (AmBisome)
Coccidioides posadasii = assay: microbe, parasite or virus in culture; assay type: cell-based; conditions: 6 isolates; AmB (AmBisome)
Fusarium solani = assay: MIC against moulds; assay type: cell-based; conditions: 6 isolates; AmB (AmBisome)
[3] = tested on: P. variotii MYA-3630 (QC); assay: MIC against moulds; assay type: cell-based; conditions: 5 isolates; AmB (AmBisome)
Cunninghamella sp. = assay: MIC against moulds; assay type: cell-based; conditions: 6 isolates; AmB (AmBisome)
Licht. Corymbifera = assay: MIC against moulds; assay type: cell-based; conditions: 6 isolates; AmB (AmBisome)
Licht. Ramosa = assay: MIC against moulds; assay type: cell-based; conditions: 6 isolates; AmB (AmBisome)
Syncephalastrum sp. = assay: MIC against moulds; assay type: cell-based; conditions: 6 isolates; AmB (AmBisome)
Claophialophora bantiana = assay: MIC against moulds; assay type: cell-based; conditions: 6 isolates; AmB (AmBisome)
Blastomyces dermatitidis = assay: MIC against moulds; assay type: cell-based; conditions: 5 isolates; AmB (AmBisome)
Fonsecaeu sp. = assay: MIC against moulds; assay type: cell-based; conditions: 6 isolates; AmB (AmBisome)
Talaromyces marneffei = assay: MIC against moulds; assay type: cell-based; conditions: 6 isolates; AmB (AmBisome)
Apophysomyces sp. = assay: MIC against moulds; assay type: cell-based; conditions: 3 isolates; AmB (AmBisome)
Saksenaea sp. = assay: MIC against moulds; assay type: cell-based; conditions: 4 isolates; AmB (AmBisome)
Candida auris = assay: MIC against yeasts; assay type: cell-based; conditions: 10 isolates; Table 3
Candida krusei = assay: MIC against yeasts; assay type: cell-based; conditions: 2 isolates; Table 3; read-out: MIC Candida krusei
Candida parapsilosis = assay: MIC against yeasts; assay type: cell-based; conditions: 8 isolates; Table 3
Cryptococcus neoformans = assay: MIC against yeasts; assay type: cell-based; conditions: 10 isolates; Table 3
Cryptococcus gattii = assay: MIC against yeasts; assay type: cell-based; conditions: 10 isolates; Table 3; read-out: MIC Cryptococcus gattii
Rhodotorula sp. = assay: MIC against yeasts; assay type: cell-based; conditions: 6 isolates; Table 3
[4] = tested on: Purpureocillium lilacinum; assay: MIC against rare moulds resistant to AmB; assay type: cell-based; conditions: 6 isolates; Table 4
Scedosporium aurantiacum = assay: MIC against rare moulds resistant to AmB; assay type: cell-based; conditions: 4 isolates; Table 4
Scedosporium boydii = assay: MIC against rare moulds resistant to AmB; assay type: cell-based; conditions: 6 isolates; Table 4
Lomentospora prolificans = assay: MIC against rare moulds resistant to AmB; assay type: cell-based; conditions: 6 isolates; Table 4
[5] = Liver microsome stability; conditions: Mouse, rat, dog, monkey, human: All species

## CC1C=CC=CC=CC=CC=CC=CC=CC(OC2OC(C)C(O)C(N)C2O)CC2OC(O)(CC(O)CC(O)C(O)CCC(O)CC(O)CC(=O)OC(C)C(C)C1O)CC(O)C2C(=O)NC(CO)CO (centres unmarked) [Compound 1]
yeast
  MICavg yeast (5 strains): 0.53
  MIC: 2.1 µM (≈ 2.09 µg/mL)
  MICavg yeast (46 strains): 2.1
moulds
  MICavg moulds (3 strains): 1.6
  MIC: 1.4 µM (≈ 1.4 µg/mL)
  MICavg moulds (159 strains): 1.4
[1]
  Binds Cholesterol: No
[2]
  Blood Plasma Stability (T1/2, min) Mouse: >289; >289 min
A. fumigatus
  MIC: 1.33 µM (≈ 1.33 µg/mL)
A. flavus
  MIC: 1.67 µM (≈ 1.67 µg/mL)
A. niger
  MIC: 0.5 µM (≈ 0.499 µg/mL)
A. terreus
  MIC: 2 µM (≈ 1.99 µg/mL)
A. calldoustus
  MIC: 2.17 µM (≈ 2.16 µg/mL)
A. tubingensis
  MIC A. tubingensis: 0.83 µM (≈ 0.828 µg/mL)
Mucor circinelloides
  MIC Mucor circinelloides: 0.58 µM (≈ 0.578 µg/mL)
Mucor janssenii
  MIC: 0.5 µM (≈ 0.499 µg/mL)
Mucor velutinosus
  MIC: 0.67 µM (≈ 0.668 µg/mL)
Histoplasma capsulatum
  MIC Histoplasma capsulatum: 0.06 µM (≈ 0.0598 µg/mL)
Coccidioides immitis
  MIC Coccidioides immitis: 0.27 µM (≈ 0.269 µg/mL)
Coccidioides posadasii
  MIC Coccidioides posadasii: 0.25 µM (≈ 0.249 µg/mL)
Fusarium solani
  MIC: 5.67 µM (≈ 5.65 µg/mL)
[3]
  MIC: 2 µM (≈ 1.99 µg/mL)
Cunninghamella sp.
  MIC: 4 µM (≈ 3.99 µg/mL)
Licht. Corymbifera
  MIC: 0.5 µM (≈ 0.499 µg/mL)
Licht. Ramosa
  MIC: 0.58 µM (≈ 0.578 µg/mL)
Syncephalastrum sp.
  MIC: 0.5 µM (≈ 0.499 µg/mL)
Claophialophora bantiana
  MIC: 1.17 µM (≈ 1.17 µg/mL)
Blastomyces dermatitidis
  MIC: 0.25 µM (≈ 0.249 µg/mL)
Fonsecaeu sp.
  MIC: <0.03 µM
Talaromyces marneffei
  MIC: 0.12 µM (≈ 0.12 µg/mL)
Apophysomyces sp.
  MIC: 6.8 µM (≈ 6.78 µg/mL)
Saksenaea sp.
  MIC: 0.23 µM (≈ 0.229 µg/mL)
Candida auris
  MIC: 2.6 µM (≈ 2.59 µg/mL)
Candida krusei
  MIC: 2 µM (≈ 1.99 µg/mL)
Candida parapsilosis
  MIC: 1.8 µM (≈ 1.79 µg/mL)
Cryptococcus neoformans
  MIC: 2 µM (≈ 1.99 µg/mL)
Cryptococcus gattii
  MIC: 1.6 µM (≈ 1.6 µg/mL)
Rhodotorula sp.
  MIC: 2.8 µM (≈ 2.79 µg/mL)
[4]
  MIC: >16 µM
Scedosporium aurantiacum
  MIC: >16 µM
Scedosporium boydii
  MIC: >16 µM
Lomentospora prolificans
  MIC: >16 µM
[5]
  Liver microsome (T1/2, min): >145 min

## CC1C=CC=CC=CC=CC=CC=CC=CC(OC2OC(C)C(O)C(N)C2O)CC2OC(O)(CC(O)CC(O)C(O)CCC(O)CC(O)CC(=O)OC(C)C(C)C1O)CC(O)C2C(=O)NC(CO)(CO)CO (centres unmarked) [Compound 2]
yeast
  MICavg yeast (5 strains): 0.41
  MIC: 2.3 µM (≈ 2.36 µg/mL)
  MICavg yeast (46 strains): 2.3
moulds
  MICavg moulds (3 strains): 1
  MIC: 2.6 µM (≈ 2.67 µg/mL)
  MICavg moulds (159 strains): 2.6
[1]
  Binds Cholesterol: No
[2]
  Blood Plasma Stability (T1/2, min) Mouse: 265.1 min
A. fumigatus
  MIC: 2.33 µM (≈ 2.39 µg/mL)
A. flavus
  MIC: 1.67 µM (≈ 1.72 µg/mL)
A. niger
  MIC: 0.75 µM (≈ 0.77 µg/mL)
A. terreus
  MIC: 2.3 µM (≈ 2.36 µg/mL)
A. calldoustus
  MIC: 2.33 µM (≈ 2.39 µg/mL)
A. tubingensis
  MIC A. tubingensis: 0.92 µM (≈ 0.945 µg/mL)
Mucor circinelloides
  MIC Mucor circinelloides: 0.92 µM (≈ 0.945 µg/mL)
Mucor janssenii
  MIC: 0.92 µM (≈ 0.945 µg/mL)
Mucor velutinosus
  MIC: 1.17 µM (≈ 1.2 µg/mL)
Histoplasma capsulatum
  MIC Histoplasma capsulatum: 0.08 µM (≈ 0.0822 µg/mL)
Coccidioides immitis
  MIC Coccidioides immitis: 0.27 µM (≈ 0.277 µg/mL)
Coccidioides posadasii
  MIC Coccidioides posadasii: 0.5 µM (≈ 0.514 µg/mL)
Fusarium solani
  MIC: 14 µM (≈ 14.4 µg/mL)
[3]
  MIC: 2.67 µM (≈ 2.74 µg/mL)
Cunninghamella sp.
  MIC: 5.33 µM (≈ 5.48 µg/mL)
Licht. Corymbifera
  MIC: 1 µM (≈ 1.03 µg/mL)
Licht. Ramosa
  MIC: 0.75 µM (≈ 0.77 µg/mL)
Syncephalastrum sp.
  MIC: 1 µM (≈ 1.03 µg/mL)
Claophialophora bantiana
  MIC: 1.83 µM (≈ 1.88 µg/mL)
Blastomyces dermatitidis
  MIC: 0.6 µM (≈ 0.616 µg/mL)
Fonsecaeu sp.
  MIC: <0.03 µM
Talaromyces marneffei
  MIC: 0.21 µM (≈ 0.216 µg/mL)
Apophysomyces sp.
  MIC: 8.3 µM (≈ 8.53 µg/mL)
Saksenaea sp.
  MIC: 0.36 µM (≈ 0.37 µg/mL)
Candida auris
  MIC: 2.6 µM (≈ 2.67 µg/mL)
Candida krusei
  MIC: 3 µM (≈ 3.08 µg/mL)
Candida parapsilosis
  MIC: 1.6 µM (≈ 1.64 µg/mL)
Cryptococcus neoformans
  MIC: 2 µM (≈ 2.05 µg/mL)
Cryptococcus gattii
  MIC: 2 µM (≈ 2.05 µg/mL)
Rhodotorula sp.
  MIC: 3.7 µM (≈ 3.8 µg/mL)
[4]
  MIC: >16 µM
Scedosporium aurantiacum
  MIC: >16 µM
Scedosporium boydii
  MIC: >16 µM
Lomentospora prolificans
  MIC: >16 µM
[5]
  Liver microsome (T1/2, min): >145 min
